Experimental data published in patent publication US20200399242A1, “NOVEL COMPOUNDS” (INFLAZOME LIMITED, priority 2018, published 2020).
Counter-ions that a name gives are not always drawn.

target: T1, NLRP3 (Homo sapiens, UniProt Q96P20); assay: THP-1 cells pyroptosis assay (LPS-primed, nigericin-triggered, resazurin read-out); type: cell-based; conditions: 1 μg/ml LPS, compound 3 hrs, nigericin 5 μM 1 hr, resazurin viability
T1 construct: Seed THP-1 cells (25,000 cells/well) containing 1.0 μg/ml LPS in 40 μl of RPMI medium; host or cells: THP-1 cells
Protocol: THP-1 cells (ATCC #TIB-202) were grown in RPMI containing L-glutamine (Gibco #11835) supplemented with 1 mM sodium pyruvate (Sigma #S8636) and penicillin (100 units/ml)/streptomycin (0.1 mg/ml) (Sigma #P4333) in 10% Fetal Bovine Serum (FBS) (Sigma #F0804). The cells were routinely passaged and grown to confluency (˜10^6 cells/ml). On the day of the experiment, THP-1 cells were harvested and resuspended into RPMI medium (without FBS). The cells were then counted and viability (>90%) checked by Trypan blue (Sigma #T8154). Appropriate dilutions were made to give a concentration of 625,000 cells/ml. To this diluted cell solution was added LPS (Sigma #L4524) to give a 1 μg/ml Final Assay Concentration (FAC). 40 μl of the final preparation was aliquoted into each well of a 96-well plate. The plate thus prepared was used for compound screening. The following method step-by-step assay was followed for compound screening. • 1. Seed THP-1 cells (25,000 cells/well) containing 1.0 μg/ml LPS in 40 μl of RPMI medium (without FBS) in 96-well, black walled, clear bottom cell culture plates coated with poly-D-lysine (VWR #734-0317) • 2. Add 5 μl compound (8 points half-log dilution, with 10 μM top dose) or vehicle (DMSO 0.1% FAC) to the appropriate wells • 3. Incubate for 3 hrs at 37° C., 5% CO2 • 4. Add 5 μl nigericin (Sigma #N7143) (FAC 5 μM) to all wells • 5. Incubate for 1 hr at 37° C., 5% CO2 • 6. At the end of the incubation period, spin plates at 300×g for 3 mins and remove supernatant • 7. Then add 50 μl of resazurin (Sigma #R7017) (FAC 100 μM resazurin in RPMI medium without FBS) and incubate plates for a further 1-2 hrs at 37° C. and 5% CO2 • 8. Plates were read in an Envision reader at Ex 560 nm and Em 590 nm • 9. IC50 data is fitted to a non-linear regression equation (log inhibitor vs response-variable slope 4-parameters) The results of the pyroptosis assay are summarised in Table 1 below as THP IC50.

T1 sequence (Q96P20 whole entry): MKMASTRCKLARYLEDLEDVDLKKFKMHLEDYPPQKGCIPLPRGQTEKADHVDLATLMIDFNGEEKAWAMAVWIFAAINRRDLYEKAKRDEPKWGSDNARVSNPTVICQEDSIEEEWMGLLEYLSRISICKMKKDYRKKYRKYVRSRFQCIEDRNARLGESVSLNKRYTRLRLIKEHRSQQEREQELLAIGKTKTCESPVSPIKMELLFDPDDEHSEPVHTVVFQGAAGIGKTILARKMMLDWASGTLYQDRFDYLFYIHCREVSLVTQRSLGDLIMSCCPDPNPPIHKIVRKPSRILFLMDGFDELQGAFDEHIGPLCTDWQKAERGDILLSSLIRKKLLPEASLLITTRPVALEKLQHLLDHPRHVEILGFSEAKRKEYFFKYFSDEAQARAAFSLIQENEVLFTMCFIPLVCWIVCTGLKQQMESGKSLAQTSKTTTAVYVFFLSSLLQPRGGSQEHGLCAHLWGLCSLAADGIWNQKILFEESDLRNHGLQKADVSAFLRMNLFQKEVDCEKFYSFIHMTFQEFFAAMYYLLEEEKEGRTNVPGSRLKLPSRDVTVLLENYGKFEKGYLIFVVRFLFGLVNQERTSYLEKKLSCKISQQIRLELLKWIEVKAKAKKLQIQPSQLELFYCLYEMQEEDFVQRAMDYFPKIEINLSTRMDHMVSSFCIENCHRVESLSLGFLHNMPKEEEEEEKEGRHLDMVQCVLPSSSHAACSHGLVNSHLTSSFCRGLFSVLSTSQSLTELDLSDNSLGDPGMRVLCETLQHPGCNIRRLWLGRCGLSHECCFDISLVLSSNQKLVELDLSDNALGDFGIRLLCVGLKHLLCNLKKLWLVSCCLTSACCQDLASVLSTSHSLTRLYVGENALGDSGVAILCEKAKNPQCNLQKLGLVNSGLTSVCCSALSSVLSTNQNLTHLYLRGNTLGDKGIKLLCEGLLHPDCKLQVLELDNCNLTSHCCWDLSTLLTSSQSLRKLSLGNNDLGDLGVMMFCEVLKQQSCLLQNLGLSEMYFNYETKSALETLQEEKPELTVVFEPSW

Row | SMILES | IC50
1 | COc1cc(-c2cc(F)cc(C(C)C)c2CC(=O)NS(=O)(=O)c2ccc(=O)n(C)c2)ccn1 [Example 1, 2-(4-Fluoro-2-isopropyl-6-(2-methoxypyridin-4-yl)phenyl)-N-((1-methyl-6-oxo-,6-dihydropyridin-3-yl)sulfonyl)acetamide, potassium salt] | 5 to 10 µM
2 | COc1cc(-c2cc(F)cc(C(C)C)c2CC(=O)NS(=O)(=O)c2cn(C)c(=O)n(C)c2=O)ccn1 [Example 3, N-((1,3-Dimethyl-2,4-dioxo-1,2,3,4-tetrahydropyrimidin-5-yl)sulfonyl)-2-(4-fluoro-2-isopropyl-6-(2-methoxypyridin-4-yl)phenyl) acetamide] | ≤ 1 µM
3 | COc1cc(-c2cc(F)cc(C(C)C)c2CC(=O)NS(=O)(=O)c2ccc(=O)n(C(C)C)c2)ccn1 [Example 2, 2-(4-Fluoro-2-isopropyl-6-(2-methoxypyridin-4-yl)phenyl)-N-((1-isopropyl-6-oxo-1,6-dihydropyridin-3-yl)sulfonyl)acetamide, potassium salt] | 1 to 5 µM
